Test results from PubChem BioAssay (NCI).
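Exposure lasted 48 hours, with cells grown in 96-well plates and compounds tested at five concentrations. TGI: concentration producing complete growth inhibition.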

Tests used:
Assay in all cases: NCI anticancer screen, dose series, 48 h
ACHN renal = test system: ACHN renal
TK-10 renal = test system: TK-10 renal
SF-268 CNS = test system: SF-268 CNS
U251 CNS = test system: U251 CNS
MDA-MB-231 breast = test system: MDA-MB-231 breast
A549 NSCLC = test system: A549 NSCLC
SK-MEL-28 melanoma = test system: SK-MEL-28 melanoma
HOP-92 NSCLC = test system: HOP-92 NSCLC
SK-OV-3 ovarian = test system: SK-OV-3 ovarian
SNB-75 CNS = test system: SNB-75 CNS
RXF 393 renal = test system: RXF 393 renal
UACC-62 melanoma = test system: UACC-62 melanoma
SW-620 colon = test system: SW-620 colon
MALME-3M melanoma = test system: MALME-3M melanoma
NCI/ADR-RES ovarian = test system: NCI/ADR-RES ovarian
BT-549 breast = test system: BT-549 breast
OVCAR-8 ovarian = test system: OVCAR-8 ovarian
HL-60(TB) leukemia = test system: HL-60(TB) leukemia
KM12 colon = test system: KM12 colon
OVCAR-4 ovarian = test system: OVCAR-4 ovarian
SF-295 CNS = test system: SF-295 CNS
OVCAR-3 ovarian = test system: OVCAR-3 ovarian
786-0 renal = test system: 786-0 renal
HCT-116 colon = test system: HCT-116 colon
LOX IMVI melanoma = test system: LOX IMVI melanoma
OVCAR-5 ovarian = test system: OVCAR-5 ovarian
SK-MEL-5 melanoma = test system: SK-MEL-5 melanoma
HCC-2998 colon = test system: HCC-2998 colon
COLO 205 colon = test system: COLO 205 colon
A498 renal = test system: A498 renal
HCT-15 colon = test system: HCT-15 colon
NCI-H522 lung = test system: NCI-H522 lung
UACC-257 melanoma = test system: UACC-257 melanoma
EKVX NSCLC = test system: EKVX NSCLC
MDA-N = test system: MDA-N
HS 578T breast = test system: HS 578T breast
UO-31 renal = test system: UO-31 renal
CCRF-CEM leukemia = test system: CCRF-CEM leukemia
HT29 colon = test system: HT29 colon
NCI-H23 lung = test system: NCI-H23 lung
M14 melanoma = test system: M14 melanoma
T-47D breast = test system: T-47D breast
MDA-MB-435 = test system: MDA-MB-435
CAKI-1 renal = test system: CAKI-1 renal
MOLT-4 leukemia = test system: MOLT-4 leukemia
HOP-62 NSCLC = test system: HOP-62 NSCLC
MCF7 breast = test system: MCF7 breast
RPMI-8226 leukemia = test system: RPMI-8226 leukemia
DU-145 prostate = test system: DU-145 prostate
SNB-19 CNS = test system: SNB-19 CNS
PC-3 prostate = test system: PC-3 prostate
SK-MEL-2 melanoma = test system: SK-MEL-2 melanoma
IGROV1 ovarian = test system: IGROV1 ovarian
NCI-H460 lung = test system: NCI-H460 lung
K-562 leukemia = test system: K-562 leukemia
SR leukemia = test system: SR leukemia
SN12C renal = test system: SN12C renal
NCI-H226 lung = test system: NCI-H226 lung

O=C1/C(=C/c2cccc([N+](=O)[O-])c2)N=C(c2ccccc2)N1c1ccc2c(c1)Sc1cc(N3C(=O)/C(=C/c4cccc([N+](=O)[O-])c4)N=C3c3ccccc3)ccc1N2
TGI (ACHN renal): > 100 µM
TGI (TK-10 renal): 39.4 µM
TGI (SF-268 CNS): 40.5 µM
TGI (U251 CNS): 66.5 µM
TGI (MDA-MB-231 breast): 89.8 µM
TGI (A549 NSCLC): > 100 µM
TGI (SK-MEL-28 melanoma): > 100 µM
TGI (HOP-92 NSCLC): 85.2 µM
TGI (SK-OV-3 ovarian): 30.9 µM
TGI (SNB-75 CNS): 34.3 µM
TGI (RXF 393 renal): 62.2 µM
TGI (UACC-62 melanoma): 31.7 µM
TGI (SW-620 colon): > 100 µM
TGI (MALME-3M melanoma): 41.1 µM
TGI (NCI/ADR-RES ovarian): > 100 µM
TGI (BT-549 breast): 52.4 µM
TGI (OVCAR-8 ovarian): 78.8 µM
TGI (HL-60(TB) leukemia): 64.6 µM
TGI (KM12 colon): > 100 µM
TGI (OVCAR-4 ovarian): 34.5 µM
TGI (SF-295 CNS): 32.6 µM
TGI (OVCAR-3 ovarian): 28.4 µM
TGI (786-0 renal): 46.3 µM
TGI (HCT-116 colon): > 100 µM
TGI (LOX IMVI melanoma): 74.1 µM
TGI (OVCAR-5 ovarian): 35.8 µM
TGI (SK-MEL-5 melanoma): 31 µM
TGI (HCC-2998 colon): > 100 µM
TGI (COLO 205 colon): > 100 µM
TGI (A498 renal): 55.1 µM
TGI (HCT-15 colon): > 100 µM
TGI (NCI-H522 lung): 41.9 µM
TGI (UACC-257 melanoma): 37.5 µM
TGI (EKVX NSCLC): 62.9 µM
TGI (MDA-N): 35 µM
TGI (HS 578T breast): > 100 µM
TGI (UO-31 renal): > 100 µM
TGI (CCRF-CEM leukemia): 55.3 µM
TGI (HT29 colon): > 100 µM
TGI (NCI-H23 lung): 92.4 µM
TGI (M14 melanoma): 87.9 µM
TGI (T-47D breast): 80 µM
TGI (MDA-MB-435): 34.5 µM
TGI (CAKI-1 renal): 54 µM
TGI (MOLT-4 leukemia): > 100 µM
TGI (HOP-62 NSCLC): 49.5 µM
TGI (MCF7 breast): 37.9 µM
TGI (RPMI-8226 leukemia): > 100 µM
TGI (DU-145 prostate): > 100 µM
TGI (SNB-19 CNS): 40.2 µM
TGI (PC-3 prostate): 52.8 µM
TGI (SK-MEL-2 melanoma): 39.9 µM
TGI (IGROV1 ovarian): 45.3 µM
TGI (NCI-H460 lung): > 100 µM
TGI (K-562 leukemia): 96.7 µM

Nc1nc(Cl)nc2c1ncn2C1CCC(CO)O1 (stereo not drawn)
TGI (TK-10 renal): > 100 µM
TGI (U251 CNS): > 100 µM
TGI (SR leukemia): > 100 µM
TGI (SK-MEL-28 melanoma): > 100 µM
TGI (HOP-92 NSCLC): > 100 µM
TGI (SK-OV-3 ovarian): > 100 µM
TGI (SNB-75 CNS): > 100 µM
TGI (RXF 393 renal): > 100 µM
TGI (UACC-62 melanoma): > 100 µM
TGI (SW-620 colon): > 100 µM
TGI (MALME-3M melanoma): > 100 µM
TGI (NCI/ADR-RES ovarian): > 100 µM
TGI (BT-549 breast): > 100 µM
TGI (OVCAR-8 ovarian): > 100 µM
TGI (KM12 colon): > 100 µM
TGI (OVCAR-4 ovarian): > 100 µM
TGI (SF-295 CNS): > 100 µM
TGI (OVCAR-3 ovarian): > 100 µM
TGI (HCT-116 colon): > 100 µM
TGI (LOX IMVI melanoma): > 100 µM
TGI (OVCAR-5 ovarian): > 100 µM
TGI (SK-MEL-5 melanoma): > 100 µM
TGI (SN12C renal): > 100 µM
TGI (COLO 205 colon): > 100 µM
TGI (A498 renal): > 100 µM
TGI (HCT-15 colon): > 100 µM
TGI (UACC-257 melanoma): > 100 µM
TGI (MDA-N): > 100 µM
TGI (HS 578T breast): > 100 µM
TGI (UO-31 renal): > 100 µM
TGI (CCRF-CEM leukemia): > 100 µM
TGI (HT29 colon): > 100 µM
TGI (NCI-H23 lung): > 100 µM
TGI (M14 melanoma): > 100 µM
TGI (T-47D breast): > 100 µM
TGI (MDA-MB-435): > 100 µM
TGI (CAKI-1 renal): > 100 µM
TGI (MOLT-4 leukemia): > 100 µM
TGI (HOP-62 NSCLC): > 100 µM
TGI (MCF7 breast): > 100 µM
TGI (RPMI-8226 leukemia): > 100 µM
TGI (DU-145 prostate): > 100 µM
TGI (SNB-19 CNS): > 100 µM
TGI (PC-3 prostate): > 100 µM
TGI (SK-MEL-2 melanoma): > 100 µM
TGI (IGROV1 ovarian): > 100 µM
TGI (NCI-H460 lung): > 100 µM
TGI (NCI-H226 lung): > 100 µM
